Paper PMC6715681, “A high-throughput screen to identify novel synthetic lethal compounds for the treatment of E-cadherin-deficient cells” (Scientific Reports, 2019)
Marks after values point to notes of the source that are not given here.

Columns and labels:
MCF10A WT cells [1] = assay: 11-point dose-response screen, cell titre blue (CTB) viability; format: cell-based, human; settings: for EC50 / activity at 20 µM: Homo sapiens, MCF-10A; for activity at 20 µM: viability of WT cells at highest concentration 20 μM, read-out: MCF10A WT POC at 20 μM
Experimental: (§1) The 11-point dose-response screen evaluated a concentration range from 0.02 µM to 20 µM for both isogenic cell lines in duplicate biological replicates (Fig. 4). One limitation to metabolism-based cellular assays is that a change in read out (fluorescence, luminescence or absorbance) may not necessarily be caused by cell death and could instead result from a cessation of proliferation due to senescence or inhibited mitochondrial respiration. For this reason, a direct measurement of cell counts using cellular imaging of nuclei stained with Hoechst 33342 was also included at the 11-point screening stage. For the CTB 11-point screen all plates had acceptable Z’ values above 0.4, with the second biological replicate having 70% above 0.6 (Fig. 4A). The Z’ values for the high-content imaging (HCI) 11-point screen plates were above 0.4 for MCF10A WT, except one plate from biological replicate two with 0.396 (Fig. 4B). However, for MCF10A CDH1^−/− HCI data, only four plates were above a Z’ of 0.4 and the mean Z’ was 0.32 compared to a mean of 0.51 for MCF10A WT. A further quality metric known as the strictly standardized mean difference (SSMD)[40] is a less conservative approach for QC and a cut-off of >3 is generally used. The mean SSMD value was 7.04 for MCF10A WT and 5.27 for MCF10A CDH1^−/− plates and indicates the MCF10A CDH1^−/− HCI data was acceptable[41]. There was a good correlation between the top hits from the HCI and CTB 11-point screening with an overlap of 31 / 40 for the top 40 compounds selected from the eventual hit selection strategies.
(§2) MCF10A WT and MCF10A CDH1^−/− cells were seeded into Corning black walled, clear bottom 384-well plates (assay plates) using a multidrop 384 reagent dispenser (Thermo Fisher Scientific) and a total volume of 50 μL per well.
(§3) As we have shown MCF10A CDH1^−/− cells have a prolonged lag to log phase growth of around 24 hours, in order to achieve a similar confluence at 72 hours post seeding MCF10A WT and MCF10A CDH1^−/− cell lines were seeded at 600 cells/well and 800 cells/well, respectively. Following seeding, plates were left for one hour at RT without stacking[46] and then centrifuged at 500 × g (RCF) for one minute. Plates were then transferred to an incubator at 37 °C and 5% CO2. At 24 hours post seeding, the MiniTrak robotic liquid handling system (Perkin Elmer) was used to transfer 352 compounds per 384-well library plate to the first 22 columns of a 384-well assay plate containing cells to achieve a 10 μM final compound concentration for the pilot, primary and single-point confirmation screens. For the 11-point dose-response screen, compounds were added to columns 1–22, but excluding edge rows A and P of the library plate to reduce edge-effects (Supplementary Fig. 2). The controls of DMSO (0.2% v/v), doxorubicin (EC80) and entinostat (EC50) were added into columns 23–24 of each assay plate (Supplementary Table 1). Cell titre blue[47] was made in-house in sterile PBS from 597 μM resazurin, 78 μM methylene blue, 1 mM potassium hexacyanoferrate (III) and 1 mM potassium hexacyanoferrate (II) trihydrate. At 69 hours post seeding, 16.7% v/v CTB was added to plates and they were incubated at 37 °C for 3 hours (Supplementary Fig. 1). At 72 hours post seeding, plates were removed from the incubator and left for 30 minutes at RT to equalise the temperature across all wells of the plates and reduce fluorescence-based edge effects before reading on an EnVision (PerkinElmer) at 550 nm excitation and 590 nm emission to quantify cell viability.
(§4) Supplementary Table 1. Killing control and SL control effective concentrations.
(§5) Doxorubicin EC80 0.3 µM 0.4 µM
(§6) MCF10A WT cells were seeded at 600/well and MCF10A CDH1-/- cells at 800/well in 384-well plates. Drugs
(§7) were added at 24 hours post seeding and CTB was used as an end-point assay. Concentrations were normalized

MCF10A CDH1^−/− cells [2] = assay: as above; format: cell-based, human; settings: for EC50: Homo sapiens, MCF-10A; for Differential at 20 μM: MCF10A WT – MCF10A CDH1−/− POC at 20 μM
Experimental: as §1, §2, §3, §4, §5, §6, §7

[3] = tested on: MCF10A WT and MCF10A CDH1^−/− cells; assay: Single-point confirmation screen (10 μM, CTB, 384-well), viability differential between isogenic lines; format: cell-based, human; settings: averaged between three biological replicates, Supplementary Table 2
Experimental: In the single-point confirmation screen, compounds that preferentially harm MCF10A CDH1^−/− cells compared to the wild-type cells were now identified. Three biological replicates were performed for each of the isogenic cell lines at a single-point (10 μM) in 384-well plates. All assay plates had acceptable Z’ values above 0.4 and 23 out of 48 plates had values above 0.6. The POC R^2 correlation between the three biological replicates for the two isogenic cell lines were all above 0.8 (data not shown). A cell viability differential of ‘MCF10A WT POC – MCF10A CDH1^−/− POC’ was used to select hits. An arbitrary threshold for the mean differential of >8.5% was chosen in order to maximize the number of hits being screened in the subsequent stages and to reduce false negatives.
To incorporate a measure of the variability between replicates of the screen into the hit selection process, a further requirement was included of a minimum of 2/3 biological replicates having viability differentials >8.5%. This removed a further 52 compounds shown in blue with only one out of three biological replicates crossing the Y = X-8.5 line independent of the mean. In total, 256 compounds were above the hit selection threshold, thereby preferentially killing E-cadherin negative cells. The mean POC differential of the 256 hits was 17.6% +/− 7.1 (+/−SD), with the highest being 48% for SLEC-1 (Synthetic Lethal E-Cadherin compound 1). […] The resulting 256 SL compounds were then assayed in an 11-point screen for EC50 determination.
as §2
As we have shown MCF10A CDH1^−/− cells have a prolonged lag to log phase growth of around 24 hours, in order to achieve a similar confluence at 72 hours post seeding MCF10A WT and MCF10A CDH1^−/− cell lines were seeded at 600 cells/well and 800 cells/well, respectively. […] At 72 hours post seeding, plates were removed from the incubator and left for 30 minutes at RT to equalise the temperature across all wells of the plates and reduce fluorescence-based edge effects before reading on an EnVision (PerkinElmer) at 550 nm excitation and 590 nm emission to quantify cell viability.
The coRFU values were then used to calculate the normalized readouts of percent of controls (Eq. 3) and the robust Z score (Eqs 4,5), where doxorubicin refers to an EC80 dose and DMSO was 0.2% v/v.3 coPOC=100×(SamplecoRFU−x¯doxorubicincoRFU)/(x¯DMSOcoRFU−x¯doxorubicincoRFU) 4 MAD=median([…]) 5 CorrectedrobustZscore=(SamplecoRFU−platemediancoRFU)/MAD

MCF10A CDH1^−/− cells [4] = assay: Medium-throughput validation in 96-well plates, Hoechst-33342 nuclei counts (CellProfiler); format: cell-based, human; settings: for EC50 ratio (MCF10A WT/MCF10A CDH1^−/−) / EC50: 96-well validation; for EC50: Homo sapiens, MCF-10A, Hoechst nuclei counts, at least five concentration points; for Differential at 5 µM (%): normalized cell counts MCF10A WT – MCF10A CDH1^−/−, 96-well, 48 h post compound addition
Experimental: (§8) Cells were seeded into each well of Corning’s black walled, clear bottom 96-well plates with a total volume of 100 μL per well. Edge wells were excluded. Both isogenic cell lines were seeded into the same plate to mitigate plate-to-plate variation. Plates for real-time analysis were transferred to the xCELLigence platform (ACEA Biosciences, USA) or the IncuCyte FLR imaging system (Essen BioScience, USA) as previously described.
(§9) Seventy-two hours post seeding (or 48 hours post compound addition), plates were assayed for cell viability using a one-step cocktail of PFA (0.25% v/v), saponin (0.075% w/v) and Hoechst 33342 (1 μg/ml final) as described previously. CellProfiler was used to enumerate cell counts as previously described.

MCF10A WT cells [5] = assay: 11-point dose-response screen, high-content imaging (HCI) of Hoechst 33342 nuclei; format: cell-based; settings: Homo sapiens, MCF-10A, 11-point screen
Experimental: as §1
(§10) A direct measurement of cell counts using cellular imaging of nuclei was also included at the 11-point screening stage. Plates were fixed, washed and stained using an ELx405 Select deep well washer (BioTek). Media was first aspirated leaving 10 μL/well, then 4% w/v PFA was added and plates left for 15 minutes at RT. Plates were then washed twice with PBS-T, before aspirating all permeabilization buffer and adding Hoechst 33342 (1 μg/mL final) in PBS. Plates were then stored in the dark at 4 °C, until being imaged on a BD Pathway 855. Two 10x images per well were taken and cell counts enumerated using CellProfiler[48].

MCF10A WT cells [6] = assay: Medium-throughput validation in 96-well plates, Hoechst-33342 nuclei counts (CellProfiler); format: cell-based; settings: Homo sapiens, MCF-10A, 96-well validation, at least five concentration points
Experimental: as §8, §9

MCF10A CDH1^−/− cells [7] = assay: 11-point dose-response screen, high-content imaging (HCI) of Hoechst 33342 nuclei; format: cell-based, human; settings: Homo sapiens, MCF-10A; 11-point screen, HCI
Experimental: as §1, §10

[8] = killing control, 384-well, CTB, 11-point curve, 72 hrs post seeding
[9] = 11-point screen (0.02–20 µM), CTB values, two biological replicates, for EC50 values > 20, a value of 20 was used, read-out: MCF10A WT EC50
[10] = 11-point screen (0.02–20 µM), CTB values, averaged between two biological replicates, Supplementary Table 2, read-out: MCF10A CDH1 -/- EC50
[11] = 11-point screen, CTB, read-out: MCF10A CDH1^-/- CTB EC50

Row | SMILES | EC50 (MCF10A WT cells [1]; [9]) | activity at 20 µM (MCF10A WT cells [1]; 11-point screen) | Differential at 20 μM (MCF10A CDH1^−/− cells [2]; 11-point screen) | EC50 (MCF10A CDH1^−/− cells [2]; [10]) | Differential at 1-pt [3] | EC50 (MCF10A CDH1^−/− cells [2]; [11]) | EC50 ratio (MCF10A WT/MCF10A CDH1^−/−) (MCF10A CDH1^−/− cells [4]) | EC50 (MCF10A CDH1^−/− cells [4]) | Differential at 5 µM (%) (MCF10A CDH1^−/− cells [4]) | EC50 (MCF10A WT cells [5]) | EC50 (MCF10A WT cells [6]) | EC50 (MCF10A CDH1^−/− cells [7]) | further results
1 | COc1cccc2c1C(=O)c1c(O)c3c(c(O)c1C2=O)C[C@@](O)(C(=O)CO)C[C@@H]3O[C@H]1C[C@H](N)[C@H](O)[C@H](C)O1 [Doxorubicin, doxorubicin, reference compound] | – | – | – | – | – | – | – | – | – | – | – | – | EC80, MCF10A WT (MCF10A WT cells [1]; [8]): 0.3 µM; EC80, MCF10A CDH1-/- (MCF10A CDH1^−/− cells [2]; [8]): 0.4 µM
2 | Nc1ccccc1NC(=O)c1ccc(CNC(=O)OCc2cccnc2)cc1 [Entinostat, entinostat, reference compound] | – | – | – | – | – | – | – | – | – | – | – | – | EC50 (MCF10A WT cells [1]; SL control, 384-well, CTB, 11-point curve, 72 hrs post seeding, read-out: EC50, MCF10A WT): 3.2 µM; EC50 (MCF10A CDH1^−/− cells [2]; SL control, 384-well, CTB, 11-point curve, 72 hrs post seeding, read-out: EC50, MCF10A CDH1-/-): 2.4 µM
3 | COc1ccc2nccc(Nc3cccc(C(C)=O)c3)c2c1 [SLEC-2] | 17.7 µM | 42.3% | 49.66 | 3.21 µM | 39.99 | – | – | – | – | – | – | – | –
4 | COc1cc(Cl)c(C)cc1NC(=O)c1ccc(CN2CCCC2)cc1 [SLEC-6] | – | – | – | – | – | 17.3 µM | 1.56 | 14.5 µM | 20.78* % | > 20 µM | 22.6 µM | 7.79 µM | EC50 (MCF10A WT cells [1]; 11-point screen, CTB, read-out: MCF10A WT CTB EC50): > 20 µM
5 | COc1ccc2nc(C)cc(NCC(=O)Nc3cccc(C)c3C)c2c1 [SLEC-12] | 19.4 µM | 45% | 65.85 | – | 13.92 | 3.06 µM | 1.45 | 8.98 µM | 11.47% | 12.6 µM | 13 µM | 2.45 µM | EC50 ratio between MCF10A WT and MCF10A CDH1^−/− cells (MCF10A CDH1^−/− cells [2]; 11-point screen, value corresponds to the CTB EC50s of Fig. 5): 6.34 fold change
6 | CCOc1ccc2nc(C)cc(SCC(O)C(=O)O)c2c1 (stereo not shown) [SLEC-20] | > 20 µM | 92.9% | 70.17 | 9.38 µM | 23.81 | – | – | – | – | – | – | – | –
